Measured values from ChEMBL document CHEMBL1921781, “Antibacterial and antitubercular activity of fosmidomycin, FR900098, and their lipophilic analogs” (2011).
≈ marks a conversion by molar mass, not a printed value.

How the values were obtained:
Format in all cases: functional
Bacillus anthracis = experiment: Antibacterial activity against Bacillus anthracis after overnight incubation by microbroth dilution method
Enterococcus faecalis = experiment: Antibacterial activity against Enterococcus faecalis after overnight incubation by microbroth dilution method
Staphylococcus aureus [1] = experiment: Antibacterial activity against methicillin-susceptible Staphylococcus aureus after overnight incubation by microbroth dilution method
Staphylococcus aureus [2] = experiment: Antibacterial activity against methicillin-resistant Staphylococcus aureus after overnight incubation by microbroth dilution method
[3] = system: Mycobacterium tuberculosis; experiment: Antitubercular activity against Mycobacterium tuberculosis H37Rv after 7 days by microbroth dilution method; conditions: 168 h
Acinetobacter = experiment: Antibacterial activity against Acinetobacter after overnight incubation by microbroth dilution method
Escherichia coli [4] = experiment: Antibacterial activity against Escherichia coli K-12 after overnight incubation by microbroth dilution method
Escherichia coli [5] = experiment: Antibacterial activity against Escherichia coli expressing TolC after overnight incubation by microbroth dilution method

| SMILES | MIC (Bacillus anthracis) | MIC (Enterococcus faecalis) | MIC (Staphylococcus aureus [1]) | MIC (Staphylococcus aureus [2]) | MIC [3] | MIC (Acinetobacter) | MIC (Escherichia coli [4]) | MIC (Escherichia coli [5]) |
| --- | --- | --- | --- | --- | --- | --- | --- | --- |
| CC(=O)N(O)CCCP(=O)([O-])O.[Na+] | 50 µg/mL | > 200 µg/mL | > 200 µg/mL | 50 µg/mL | > 500 µg/mL | 50 µg/mL | 200 µg/mL | 12.5 µg/mL |
| CCOP(=O)(CCCN(O)C=O)OCC | > 200 µg/mL | > 200 µg/mL | > 200 µg/mL | > 200 µg/mL | 400 µg/mL (≈ 1670 µM) | > 200 µg/mL | > 200 µg/mL | > 200 µg/mL |
| CCOP(=O)(CCCN(O)C(C)=O)OCC | 200 µg/mL (≈ 790 µM) | > 200 µg/mL | > 200 µg/mL | 200 µg/mL (≈ 790 µM) | 200 µg/mL (≈ 790 µM) | > 200 µg/mL | > 200 µg/mL | > 200 µg/mL |
| CC(=O)N(O)CCCP(=O)(OC(C)C)OC(C)C | > 200 µg/mL | > 200 µg/mL | > 200 µg/mL | > 200 µg/mL | 400 µg/mL (≈ 1420 µM) | > 200 µg/mL | > 200 µg/mL | > 200 µg/mL |
| CCCCCCOP(=O)(CCCN(O)C(C)=O)OCCCCCC | – | – | – | – | 100 µg/mL (≈ 274 µM) | – | – | – |
| CCOC(=O)OC(C)OP(=O)(CCCN(O)C(C)=O)OC(C)OC(=O)OCC (stereo not drawn) | > 200 µg/mL | > 200 µg/mL | > 200 µg/mL | > 200 µg/mL | 400 µg/mL (≈ 932 µM) | > 200 µg/mL | > 200 µg/mL | 200 µg/mL (≈ 466 µM) |
| CC(=O)N(O)CCCP(=O)(OCC(=O)OC(C)(C)C)OCC(=O)OC(C)(C)C | > 200 µg/mL | > 200 µg/mL | 100 µg/mL (≈ 235 µM) | 25 µg/mL (≈ 58.8 µM) | 400 µg/mL (≈ 940 µM) | > 200 µg/mL | > 200 µg/mL | > 200 µg/mL |
| CC(=O)N(O)CCCP(=O)(OC(C)OC(=O)OC(C)(C)C)OC(C)OC(=O)OC(C)(C)C (stereo not drawn) | 200 µg/mL (≈ 412 µM) | > 200 µg/mL | 100 µg/mL (≈ 206 µM) | 50 µg/mL (≈ 103 µM) | 400 µg/mL (≈ 824 µM) | > 200 µg/mL | > 200 µg/mL | > 200 µg/mL |
| CC(=O)N(O)CCCP(=O)(OCOC(=O)c1ccccc1)OCOC(=O)c1ccccc1 | 100 µg/mL (≈ 215 µM) | > 200 µg/mL | > 200 µg/mL | > 200 µg/mL | 25 µg/mL (≈ 53.7 µM) | 200 µg/mL (≈ 430 µM) | > 200 µg/mL | 50 µg/mL (≈ 107 µM) |
| CC(=O)N(O)CCCP(=O)(OC(C)OC(=O)c1ccccc1)OC(C)OC(=O)c1ccccc1 (stereo not drawn) | 50 µg/mL (≈ 101 µM) | > 200 µg/mL | > 200 µg/mL | – | 100 µg/mL (≈ 203 µM) | 100 µg/mL (≈ 203 µM) | 50 µg/mL (≈ 101 µM) | 50 µg/mL (≈ 101 µM) |
| CC(=O)N(O)CCCP(=O)(OCOC(=O)C(C)(C)C)OCOC(=O)C(C)(C)C | 200 µg/mL (≈ 470 µM) | > 200 µg/mL | 100 µg/mL (≈ 235 µM) | 50 µg/mL (≈ 118 µM) | 50 µg/mL (≈ 118 µM) | > 200 µg/mL | > 200 µg/mL | 100 µg/mL (≈ 235 µM) |
| O=CN(O)CCCP(=O)(O)O [FOSMIDOMYCIN] | 0.78 µg/mL (≈ 4.26 µM) | > 200 µg/mL | > 200 µg/mL | 200 µg/mL (≈ 1090 µM) | > 500 µg/mL | 100 µg/mL (≈ 546 µM) | 12.5 µg/mL (≈ 68.3 µM) | 6.25 µg/mL (≈ 34.1 µM) |
